Results published in patent US11324728B2, “Dosing regimens for the treatment of fungal infections” (Seren Pharmaceuticals Inc., priority 2017, dated 2022).

Key:
fungal elements = experiment: Mycological cure: search for fungal elements by direct microscopy; assay type: in vivo, human; details: PPS
Protocol: (§1) A Phase II clinical pharmacology study was conducted in subjects with onychomycosis of the toenail. The study investigated the pharmacokinetics, efficacy and safety of three different dosing regimens of fosravuconazole. […] The three treatment groups were as follows: • a.
The efficacy endpoints were: (1) overall clinical efficacy; (2) changes over time in efficacy; (3) confirmation of elements of dermatophytes by direct microscopy; and (4) results of identification of dermatophytes by the polymerase chain reaction (PCR) method.
At screening, fungal elements were found by direct microscopy in all treatment groups.

[1] = Safety: adverse events and laboratory tests; assay type: in vivo, human
Protocol: as §1
The safety endpoints were: (1) adverse events (AEs); (2) adverse reactions; and (3) laboratory tests.

Trichophyton rubrum = experiment: Overall clinical evaluation by identified species; assay type: in vivo; details: Week 48
Protocol: as §1

Trichophyton species = experiment: Overall clinical evaluation by identified species; assay type: in vivo; details: 200 mg, Week 48
Protocol: as §1

[2] = tested on: Trichophyton mentagrophytes; experiment: Overall clinical evaluation by identified species; assay type: in vivo; details: Week 48
Protocol: as §1

C[C@@H](c1nc(-c2ccc(C#N)cc2)cs1)[C@@](Cn1cncn1)(OCOP(=O)(O)O)c1ccc(F)cc1F [fosravuconazole, 4-[2-[(1R,2R)-2-(2,4-difluorophenyl)-1-methyl-2-[(phosphonooxy)methoxy]-3-(1H-1,2,4-triazol-1-yl)propyl]-4-thiazolyl]benzo-nitrile]
Absence of fungal elements by direct microscopy (%) (fungal elements; 100 mg group, At screening): (0.0) % | Absence of fungal elements by direct microscopy, subjects (fungal elements; 100 mg group, At screening): 0 | Presence of fungal elements by direct microscopy (%) (fungal elements; 100 mg group, At screening): (100.0) % | Presence of fungal elements by direct microscopy, subjects (fungal elements; 100 mg group, At screening): 28 | Absence of fungal elements by direct microscopy (%) (fungal elements; 100 mg group, Week 12): (33.3) % | Absence of fungal elements by direct microscopy, subjects (fungal elements; 100 mg group, Week 12): 9 | Presence of fungal elements by direct microscopy (%) (fungal elements; 100 mg group, Week 12): (16.7) % | Presence of fungal elements by direct microscopy, subjects (fungal elements; 100 mg group, Week 12): 18 | Absence of fungal elements by direct microscopy (%) (fungal elements; 100 mg group, Week 24): (48.0) % | Absence of fungal elements by direct microscopy, subjects (fungal elements; 100 mg group, Week 24): 12 | Presence of fungal elements by direct microscopy (%) (fungal elements; 100 mg group, Week 24): (52.0) % | Presence of fungal elements by direct microscopy, subjects (fungal elements; 100 mg group, Week 24): 13 | Absence of fungal elements by direct microscopy, subjects (fungal elements; 100 mg group, Week 48): 18 | Presence of fungal elements by direct microscopy (%) (fungal elements; 100 mg group, Week 48): (28.0) % | Presence of fungal elements by direct microscopy, subjects (fungal elements; 100 mg group, Week 48): 7 | Absence of fungal elements by direct microscopy (%) (fungal elements; 200 mg group, At screening): (0.0) % | Absence of fungal elements by direct microscopy, subjects (fungal elements; 200 mg group, At screening): 0 | Presence of fungal elements by direct microscopy (%) (fungal elements; 200 mg group, At screening): (100.0) % | Presence of fungal elements by direct microscopy, subjects (fungal elements; 200 mg group, At screening): 27 | Absence of fungal elements by direct microscopy (%) (fungal elements; 200 mg group, Week 12): (50.0) % | Absence of fungal elements by direct microscopy, subjects (fungal elements; 200 mg group, Week 12): 13 | Presence of fungal elements by direct microscopy (%) (fungal elements; 200 mg group, Week 12): (50.0) % | Presence of fungal elements by direct microscopy, subjects (fungal elements; 200 mg group, Week 12): 13 | Absence of fungal elements by direct microscopy (%) (fungal elements; 200 mg group, Week 24): (48.0) % | Absence of fungal elements by direct microscopy, subjects (fungal elements; 200 mg group, Week 24): 12 | Presence of fungal elements by direct microscopy (%) (fungal elements; 200 mg group, Week 24): (52.0) % | Presence of fungal elements by direct microscopy, subjects (fungal elements; 200 mg group, Week 24): 13 | Absence of fungal elements by direct microscopy, subjects (fungal elements; 200 mg group, Week 48): 8 | Presence of fungal elements by direct microscopy (%) (fungal elements; 200 mg group, Week 48): (63.6) % | Presence of fungal elements by direct microscopy, subjects (fungal elements; 200 mg group, Week 48): 14 | Absence of fungal elements by direct microscopy (%) (fungal elements; 400 mg group, At screening): (0.0) % | Absence of fungal elements by direct microscopy, subjects (fungal elements; 400 mg group, At screening): 0 | Presence of fungal elements by direct microscopy (%) (fungal elements; 400 mg group, At screening): (100.0) % | Presence of fungal elements by direct microscopy, subjects (fungal elements; 400 mg group, At screening): 33 | Absence of fungal elements by direct microscopy (%) (fungal elements; 400 mg group, Week 12): (19.4) % | Absence of fungal elements by direct microscopy, subjects (fungal elements; 400 mg group, Week 12): 6 | Presence of fungal elements by direct microscopy (%) (fungal elements; 400 mg group, Week 12): (80.6) % | Presence of fungal elements by direct microscopy, subjects (fungal elements; 400 mg group, Week 12): 25 | Absence of fungal elements by direct microscopy (%) (fungal elements; 400 mg group, Week 24): (45.2) % | Absence of fungal elements by direct microscopy, subjects (fungal elements; 400 mg group, Week 24): 14 | Presence of fungal elements by direct microscopy (%) (fungal elements; 400 mg group, Week 24): (54.8) % | Presence of fungal elements by direct microscopy, subjects (fungal elements; 400 mg group, Week 24): 17 | Absence of fungal elements by direct microscopy, subjects (fungal elements; 400 mg group, Week 48): 17 | Presence of fungal elements by direct microscopy (%) (fungal elements; 400 mg group, Week 48): (37.0) % | Presence of fungal elements by direct microscopy, subjects (fungal elements; 400 mg group, Week 48): 10 | AEs resulting in discontinuation of the study treatment ([1]; 100 mg (once daily dose) group): 1 subject | AST or ALT elevated to Grade 2 after the start of study treatment ([1]; 100 mg (once daily dose) group): 2 subjects | Moderate AEs ([1]; 100 mg (once daily dose) group): 3 subjects | incidence of AEs ([1]; 100 mg (once daily dose) group): 89.7% | new AE derived from fungal infection ([1]; 100 mg (once daily dose) group): no new AE derived from fungal infection | AST or ALT elevated to Grade 2 after the start of study treatment ([1]; 200 mg (pulse treatment) group): 1 subject | Moderate AEs ([1]; 200 mg (pulse treatment) group): 12 subjects | incidence of AEs ([1]; 200 mg (pulse treatment) group): 64.5% | AEs resulting in discontinuation of the study treatment ([1]; 400 mg (pulse treatment) group): 4 subjects | AST or ALT elevated to Grade 2 after the start of study treatment ([1]; 400 mg (pulse treatment) group): 1 subject | Moderate AEs ([1]; 400 mg (pulse treatment) group): 12 subjects | incidence of AEs ([1]; 400 mg (pulse treatment) group): 85.3% | tinea pedis ([1]; 400 mg (pulse treatment) group): 2 subjects | tolerability ([1]; all dosing groups): well-tolerated | death or other serious AEs ([1]; any of the treatment groups): No death or other serious AEs occurred | AST or ALT elevated to Grade 2 after the start of study treatment ([1]; in total, all groups): 4 subjects | Cure rate and 95% CI (Trichophyton rubrum; 100 mg): 47.6 % | Cured (Trichophyton rubrum; 100 mg): 10 | Failed (Trichophyton rubrum; 100 mg): 0 | Improved (Trichophyton rubrum; 100 mg): 1 | Markedly improved (Trichophyton rubrum; 100 mg): 10 | Slightly improved (Trichophyton rubrum; 100 mg): 0 | Cure rate and 95% CI (Trichophyton rubrum; 200 mg): 31.6 % | Cured (Trichophyton rubrum; 200 mg): 6 | Failed (Trichophyton rubrum; 200 mg): 0 | Improved (Trichophyton rubrum; 200 mg): 2 | Markedly improved (Trichophyton rubrum; 200 mg): 11 | Slightly improved (Trichophyton rubrum; 200 mg): 0 | Cure rate and 95% CI (Trichophyton rubrum; 400 mg): 44.0 % | Cured (Trichophyton rubrum; 400 mg): 11 | Failed (Trichophyton rubrum; 400 mg): 0 | Improved (Trichophyton rubrum; 400 mg): 4 | Markedly improved (Trichophyton rubrum; 400 mg): 10 | Slightly improved (Trichophyton rubrum; 400 mg): 0 | Cure rate and 95% CI (Trichophyton species): 0.0 % | Cured (Trichophyton species): 0 | Failed (Trichophyton species): 0 | Improved (Trichophyton species): 0 | Markedly improved (Trichophyton species): 1 | Slightly improved (Trichophyton species): 0 | Cure rate and 95% CI ([2]; 100 mg): 0.0 % | Cured ([2]; 100 mg): 0 | Failed ([2]; 100 mg): 0 | Improved ([2]; 100 mg): 0 | Markedly improved ([2]; 100 mg): 4 | Slightly improved ([2]; 100 mg): 0 | Cure rate and 95% CI ([2]; 200 mg): 0.0 % | Cured ([2]; 200 mg): 0 | Failed ([2]; 200 mg): 0 | Improved ([2]; 200 mg): 2 | Markedly improved ([2]; 200 mg): 0 | Slightly improved ([2]; 200 mg): 0 | Cure rate and 95% CI ([2]; 400 mg): 0.0 % | Cured ([2]; 400 mg): 0 | Failed ([2]; 400 mg): 0 | Improved ([2]; 400 mg): 0 | Markedly improved ([2]; 400 mg): 2 | Slightly improved ([2]; 400 mg): 0
